Source: ChEMBL document CHEMBL1201862, “PubChem BioAssay data set” (2004)
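Tested at 5 concentrations; 48 h exposure; 96-well plates; endpoints linearly interpolated, else capped at highest concentration. Here, GI50 denotes the concentration required for 50% inhibition of growth.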 Calls of active or inactive are those of the source. No stated cut-off is given here; in the data, active = GI50 up to about 1.1 µM and inactive = higher.

Columns and labels:
Assay in all cases: DTP human tumour cell line panel, 48 h
786-0 = tested on: 786-0
DU-145 = tested on: DU-145
HCC 2998 = tested on: HCC 2998
HCT-15 = tested on: HCT-15
HOP-62 = tested on: HOP-62
MOLT-4 = tested on: MOLT-4
NCI-H23 = tested on: NCI-H23
OVCAR-4 = tested on: OVCAR-4
OVCAR-5 = tested on: OVCAR-5
SF-539 = tested on: SF-539
SK-MEL-28 = tested on: SK-MEL-28
SK-MEL-2 = tested on: SK-MEL-2
SK-MEL-5 = tested on: SK-MEL-5
T47D = tested on: T47D
BT-549 = tested on: BT-549
Hs-578T = tested on: Hs-578T
K562 = tested on: K562
SF-268 = tested on: SF-268
RXF 393 = tested on: RXF 393

SMILES	GI50 (786-0)	GI50 (DU-145)	GI50 (HCC 2998)	GI50 (HCT-15) [µM]	GI50 (HOP-62)	GI50 (MOLT-4)	GI50 (NCI-H23)	GI50 (OVCAR-4)	GI50 (OVCAR-5)	GI50 (SF-539)	GI50 (SK-MEL-28)	GI50 (SK-MEL-2)	GI50 (SK-MEL-5)	GI50 (T47D)	GI50 (BT-549)	GI50 (Hs-578T)	GI50 (K562)	GI50 (SF-268)	GI50 (RXF 393)
CC1=CC(=O)/C(=C/N2C(=O)CNC2=S)C(=O)O1	> 100 µM (inactive)	> 100 µM (inactive)	> 100 µM (inactive)	> 100	> 100 µM (inactive)	> 100 µM (inactive)	> 100 µM (inactive)	> 100 µM (inactive)	> 100 µM (inactive)	> 100 µM (inactive)	> 100 µM (inactive)	> 100 µM (inactive)	> 100 µM (inactive)	> 100 µM (inactive)	–	–	–	–	–
OCC1(CNc2cc(Cl)ncn2)CCC1	> 100 µM (inactive)	> 100 µM (inactive)	–	> 100	> 100 µM (inactive)	> 100 µM (inactive)	> 100 µM (inactive)	> 100 µM (inactive)	> 100 µM (inactive)	> 100 µM (inactive)	> 100 µM (inactive)	> 100 µM (inactive)	> 100 µM (inactive)	–	> 100 µM (inactive)	> 100 µM (inactive)	> 100 µM (inactive)	> 100 µM (inactive)	–
Cc1cccc(C)c1NC(=O)C1C(=O)N(c2c(C)cccc2C)C(=O)/C1=N\N (stereo not drawn)	> 100 µM (inactive)	–	> 100 µM (inactive)	> 100	> 100 µM (inactive)	> 100 µM (inactive)	> 100 µM (inactive)	> 100 µM (inactive)	> 100 µM (inactive)	> 100 µM (inactive)	> 100 µM (inactive)	> 100 µM (inactive)	> 100 µM (inactive)	–	–	–	> 100 µM (inactive)	> 100 µM (inactive)	> 100 µM (inactive)
COc1cc2c(cc1OC)C1Cc3ccccc3CN1CCC2 (stereo not drawn)	> 100 µM (inactive)	> 100 µM (inactive)	> 100 µM (inactive)	> 100	> 100 µM (inactive)	67.6 µM (inactive)	> 100 µM (inactive)	88.3 µM (inactive)	> 100 µM (inactive)	> 100 µM (inactive)	> 100 µM (inactive)	> 100 µM (inactive)	> 100 µM (inactive)	63.7 µM (inactive)	–	93.1 µM (inactive)	50 µM (inactive)	> 100 µM (inactive)	> 100 µM (inactive)
CN(CN1C(=O)C2Cc3ccccc3CN2C1=O)c1ccccn1 (stereo not drawn)	> 100 µM (inactive)	–	> 100 µM (inactive)	> 100	> 100 µM (inactive)	> 100 µM (inactive)	> 100 µM (inactive)	> 100 µM (inactive)	> 100 µM (inactive)	> 100 µM (inactive)	> 100 µM (inactive)	> 100 µM (inactive)	> 100 µM (inactive)	–	–	–	> 100 µM (inactive)	> 100 µM (inactive)	–
CCS(=O)(=O)c1c2cc(OC)ccc2nc2ccc(OC)cc12	> 100 µM (inactive)	> 100 µM (inactive)	> 100 µM (inactive)	> 100	> 100 µM (inactive)	> 100 µM (inactive)	> 100 µM (inactive)	> 100 µM (inactive)	> 100 µM (inactive)	26.5 µM (inactive)	> 100 µM (inactive)	> 100 µM (inactive)	–	> 100 µM (inactive)	–	–	> 100 µM (inactive)	> 100 µM (inactive)	> 100 µM (inactive)
O[C@H]1[C@H](O)[C@@H](O)[C@@]2(O)C[C@@H](O)[C@@H]1N2	> 100 µM (inactive)	> 100 µM (inactive)	> 100 µM (inactive)	> 100	> 100 µM (inactive)	> 100 µM (inactive)	> 100 µM (inactive)	> 100 µM (inactive)	> 10 µM (inactive)	> 100 µM (inactive)	> 100 µM (inactive)	–	> 100 µM (inactive)	> 100 µM (inactive)	–	> 100 µM (inactive)	> 100 µM (inactive)	> 100 µM (inactive)	> 100 µM (inactive)
COc1cc(C(=O)NNC(=O)c2cc(Br)ccc2NC(=O)c2cccs2)cc(OC)c1OC	17.7 µM (inactive)	29.3 µM (inactive)	–	15.5	16.3 µM (inactive)	27.1 µM (inactive)	19.4 µM (inactive)	12 µM (inactive)	16.4 µM (inactive)	15.4 µM (inactive)	–	18.6 µM (inactive)	13.8 µM (inactive)	19.5 µM (inactive)	22.3 µM (inactive)	20.9 µM (inactive)	< 0.01 µM (active)	9.64 µM (inactive)	13.1 µM (inactive)
COC(=O)C1(C(=O)OC)CC2=C(S(=O)(=O)c3ccccc3)C[C@H](C#N)[C@H]2C1	> 100 µM (inactive)	> 100 µM (inactive)	–	40.6	> 100 µM (inactive)	> 100 µM (inactive)	> 100 µM (inactive)	> 100 µM (inactive)	> 100 µM (inactive)	> 100 µM (inactive)	> 100 µM (inactive)	> 100 µM (inactive)	> 100 µM (inactive)	57.5 µM (inactive)	–	> 100 µM (inactive)	–	> 100 µM (inactive)	> 100 µM (inactive)
CC(=O)O[C@@]1(C)[C@@H](C)C(=O)O[C@@H]2CCN3CC=C(COC(=O)[C@]1(C)O)[C@H]23	> 100 µM (inactive)	–	> 100 µM (inactive)	> 100	> 100 µM (inactive)	> 100 µM (inactive)	> 100 µM (inactive)	> 100 µM (inactive)	> 100 µM (inactive)	> 100 µM (inactive)	> 100 µM (inactive)	> 100 µM (inactive)	> 100 µM (inactive)	–	–	–	> 100 µM (inactive)	> 100 µM (inactive)	–
Nc1c(Br)cc(-c2cc(Br)c(N)c(Br)c2)cc1Br	> 100 µM (inactive)	> 100 µM (inactive)	> 100 µM (inactive)	–	66.1 µM (inactive)	> 100 µM (inactive)	> 100 µM (inactive)	> 100 µM (inactive)	> 100 µM (inactive)	> 100 µM (inactive)	> 100 µM (inactive)	–	> 100 µM (inactive)	> 100 µM (inactive)	–	73.1 µM (inactive)	> 100 µM (inactive)	> 100 µM (inactive)	33.6 µM (inactive)
O=C1/C(=C/c2ccc(Cl)cc2)N=C(c2ccccc2)N1C1Nc2cc3c(cc2S1)NC(N1C(=O)/C(=C/c2ccc(Cl)cc2)N=C1c1ccccc1)S3 (stereo not drawn)	87.3 µM (inactive)	46.3 µM (inactive)	61.1 µM (inactive)	49	90.2 µM (inactive)	4.14 µM (inactive)	> 100 µM (inactive)	59.2 µM (inactive)	> 100 µM (inactive)	> 100 µM (inactive)	> 100 µM (inactive)	88.9 µM (inactive)	34.2 µM (inactive)	28.8 µM (inactive)	–	35.2 µM (inactive)	21.2 µM (inactive)	27 µM (inactive)	76.6 µM (inactive)
COc1ccc(/C=C2/C(=O)N(/C=C3\C(=O)Oc4ccccc4C3=O)/C(=N/C(C)=O)N2C)cc1OC	> 100 µM (inactive)	> 100 µM (inactive)	> 100 µM (inactive)	> 100	> 100 µM (inactive)	> 100 µM (inactive)	> 100 µM (inactive)	> 100 µM (inactive)	> 100 µM (inactive)	> 100 µM (inactive)	> 100 µM (inactive)	> 100 µM (inactive)	> 100 µM (inactive)	> 100 µM (inactive)	–	> 100 µM (inactive)	> 100 µM (inactive)	> 100 µM (inactive)	> 100 µM (inactive)
CC(C)(C)NCc1cc(C(C)(C)C)cc(-c2ccc(Cl)cc2)c1O	13.9 µM (inactive)	11.7 µM (inactive)	14.7 µM (inactive)	11	6.14 µM (inactive)	–	12.6 µM (inactive)	16.5 µM (inactive)	13.8 µM (inactive)	11.9 µM (inactive)	13.8 µM (inactive)	18.4 µM (inactive)	16.2 µM (inactive)	–	13.7 µM (inactive)	13.3 µM (inactive)	–	12.6 µM (inactive)	–
C/C(=C\COP(=O)(O)OP(=O)(O)O)CC/C=C(\C)CNc1c(F)c(F)c(F)c(F)c1F	> 100 µM (inactive)	> 67.6 µM (inactive)	> 100 µM (inactive)	> 100	> 100 µM (inactive)	> 100 µM (inactive)	> 100 µM (inactive)	> 100 µM (inactive)	> 100 µM (inactive)	97.1 µM (inactive)	> 100 µM (inactive)	> 100 µM (inactive)	> 100 µM (inactive)	> 100 µM (inactive)	–	31 µM (inactive)	> 100 µM (inactive)	> 100 µM (inactive)	> 22.9 µM (inactive)
c1cc2ccc3cc4ncccc4c4ccc(c1)c2c34	18.8 µM (inactive)	57.4 µM (inactive)	25.6 µM (inactive)	7.73	19.9 µM (inactive)	8.59 µM (inactive)	27.5 µM (inactive)	–	84.7 µM (inactive)	20.9 µM (inactive)	43.1 µM (inactive)	16.6 µM (inactive)	–	3.36 µM (inactive)	–	> 100 µM (inactive)	59.4 µM (inactive)	30.7 µM (inactive)	46.8 µM (inactive)
O=C(NCc1ccccc1)c1cnc(Cl)cn1	> 100 µM (inactive)	> 100 µM (inactive)	17.3 µM (inactive)	23.1	–	27.1 µM (inactive)	23.3 µM (inactive)	16.7 µM (inactive)	–	> 100 µM (inactive)	> 100 µM (inactive)	48.1 µM (inactive)	54 µM (inactive)	74 µM (inactive)	–	43.2 µM (inactive)	–	> 100 µM (inactive)	> 100 µM (inactive)
